Measured values reported in patent US8202879B2, “Quinazoline derivatives having tyrosine kinase inhibitory activity” (Shionogi & Co., Ltd., priority 2005, dated 2012).
Read-outs that look alike come from different tables or passages of the source.

Columns and labels:
EGFR = target: T1, EGFR (Homo sapiens, UniProt P00533); assay: Enzyme inhibitory activity on EGFR (time resolution fluorescence, biotinylated poly-Glu-Tyr substrate); format: biochemical; conditions: EGFR purified from insect cell expression system; ATP solution 125 μM; room temperature, 60 minutes
T1 construct: purchased Carna Biosciences, Inc; host or cells: insect cell expression system
Experimental: (§1) Enzyme Inhibitory Activity of Test Compound on EGFR and HER2
(§2) EGFR and HER2 purified from an insect cell expression system, and a biotinylated substrate (synthetic peptide of glutamic acid:tyrosine=4:1) were added to a 384-well plate with ATP added thereto, and an enzyme reaction was performed at room temperature. After completion of the enzyme reaction, an anti-phosphorylated tyrosine antibody labeled with europium and streptavidin labeled with alphycocyanine were added, and a phosphorylated tyrosine residue was quantified by a time resolution fluorescence method.
(§3) A test compound was adjusted to 10 mM using DMSO.
(§4) Further, using 10% DMSO solution, a 1 mM solution was prepared, and this was regarded as a maximum concentration point.
(§5) As a dilution series, a 4-fold dilution series was prepared to a 10 stage.
(§6) As a buffer, TBS containing 10 mM MgCl2, 5 mM MnCl2, 0.2 mM Na3VO4, and 0.1% BSA was used.
(§7) As EGFR and HER2 enzymes, those purified from an insect cell expression system were purchased from Carna Biosciences, Inc.
An EGFR enzyme solution was adjusted to 250 ng/ml using a buffer.
(§8) As a substrate, biotinylated poly-Glu-Tyr (4:1, manufactured by CISbio) was used. A concentration was adjusted to 3.125 μg/ml using the above buffer.
An ATP concentration on study of the EGFR enzyme was adjusted to 125 μM using the buffer.
(§9) For preparing a detection reagent, TBS containing 30 mM EDTA, 0.8M KF and 0.1% BSA was used.
(§10) An anti-phosphorylated tyrosine antibody labeled with europium, PT-66K (CISbio) was adjusted to 195 ng/ml, and streptavidin labeled with alphycocyanine, SA-XL (CISbio) was adjusted to 5 μg/ml.
(§11) As an assay plate, a 384-well plate was used. Per one well, 1.1 μl of a test compound, 4 μl of a substrate solution, and 4 μl of an enzyme solution were added, and 2 μl of an ATP solution was added to initiate an enzyme reaction. The enzyme reaction was performed at room temperature for 60 minutes, and 10 μl of a detection reagent was added to complete the reaction. One hour after completion of the reaction, time resolution fluorescent measurement was performed.

HER2 = target: T2, HER2 (Homo sapiens, UniProt P04626); assay: Enzyme inhibitory activity on HER2 (time resolution fluorescence, biotinylated poly-Glu-Tyr substrate); format: biochemical; conditions: HER2 purified from insect cell expression system; ATP solution 290 μM; room temperature, 60 minutes
T2 construct: purchased Carna Biosciences, Inc; host or cells: insect cell expression system
Experimental: as §1, §2, §3, §4, §5, §6, §7
HER2 kinase was adjusted to 1000 ng/ml using a buffer.
as §8
An ATP concentration on study of the HER2 enzyme was adjusted to 290 μM.
as §9, §10, §11

BT-474 = assay: In vitro cell proliferation inhibition, WST assay; format: cell-based, human; conditions: BT-474 cells, cultured for 3 days, read-out: BT-474 (nM) proliferation inhibitory activity (IC50 value)
Experimental: Test of In Vitro Cell Proliferation Inhibition of Test Compound
As a human-derived cancer cell strain, BT-474 was used. Cells were all cultured in a 37° C., 5% CO2 incubator in a medium in which 10% bovine fetal serum (ICN) and 50 units ml penicillin/60 μg/ml streptomycin solution (GIBCO) were added to Dulbecco's Modified Essential Medium (DMEM, Nacalai Tesque, Inc).

T2 sequence (P04626 23-1255): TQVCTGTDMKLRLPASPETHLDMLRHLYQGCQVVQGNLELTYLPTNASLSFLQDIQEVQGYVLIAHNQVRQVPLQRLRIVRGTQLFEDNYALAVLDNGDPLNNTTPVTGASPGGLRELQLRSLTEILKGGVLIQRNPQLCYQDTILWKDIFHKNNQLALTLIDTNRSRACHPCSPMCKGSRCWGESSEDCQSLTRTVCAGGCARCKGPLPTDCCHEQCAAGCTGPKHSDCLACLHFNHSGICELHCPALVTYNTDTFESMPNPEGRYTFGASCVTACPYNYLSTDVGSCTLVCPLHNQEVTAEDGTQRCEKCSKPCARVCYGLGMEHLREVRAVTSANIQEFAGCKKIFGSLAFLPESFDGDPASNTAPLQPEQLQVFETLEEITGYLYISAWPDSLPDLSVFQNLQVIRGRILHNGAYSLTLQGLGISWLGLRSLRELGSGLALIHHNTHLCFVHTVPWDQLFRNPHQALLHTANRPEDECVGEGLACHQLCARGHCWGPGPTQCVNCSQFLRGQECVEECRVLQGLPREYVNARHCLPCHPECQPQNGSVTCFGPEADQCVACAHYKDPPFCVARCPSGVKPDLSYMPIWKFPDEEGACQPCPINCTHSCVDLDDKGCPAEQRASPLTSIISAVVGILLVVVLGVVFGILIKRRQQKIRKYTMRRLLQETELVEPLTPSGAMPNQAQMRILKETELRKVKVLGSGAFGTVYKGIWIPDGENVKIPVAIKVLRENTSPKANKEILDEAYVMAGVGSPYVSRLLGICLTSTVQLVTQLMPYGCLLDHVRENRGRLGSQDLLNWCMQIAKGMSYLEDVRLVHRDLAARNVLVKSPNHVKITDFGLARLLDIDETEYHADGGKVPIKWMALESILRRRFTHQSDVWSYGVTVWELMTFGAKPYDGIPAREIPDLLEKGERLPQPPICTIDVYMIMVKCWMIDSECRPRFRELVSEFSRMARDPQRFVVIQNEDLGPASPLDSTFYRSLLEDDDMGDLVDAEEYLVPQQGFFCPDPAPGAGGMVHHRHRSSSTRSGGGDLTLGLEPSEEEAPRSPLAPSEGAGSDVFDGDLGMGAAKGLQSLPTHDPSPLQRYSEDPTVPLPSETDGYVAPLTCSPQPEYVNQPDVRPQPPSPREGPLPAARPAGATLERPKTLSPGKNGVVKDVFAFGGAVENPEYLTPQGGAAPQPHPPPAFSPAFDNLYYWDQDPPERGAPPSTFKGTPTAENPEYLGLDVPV
T1 sequence (P00533 25-1210): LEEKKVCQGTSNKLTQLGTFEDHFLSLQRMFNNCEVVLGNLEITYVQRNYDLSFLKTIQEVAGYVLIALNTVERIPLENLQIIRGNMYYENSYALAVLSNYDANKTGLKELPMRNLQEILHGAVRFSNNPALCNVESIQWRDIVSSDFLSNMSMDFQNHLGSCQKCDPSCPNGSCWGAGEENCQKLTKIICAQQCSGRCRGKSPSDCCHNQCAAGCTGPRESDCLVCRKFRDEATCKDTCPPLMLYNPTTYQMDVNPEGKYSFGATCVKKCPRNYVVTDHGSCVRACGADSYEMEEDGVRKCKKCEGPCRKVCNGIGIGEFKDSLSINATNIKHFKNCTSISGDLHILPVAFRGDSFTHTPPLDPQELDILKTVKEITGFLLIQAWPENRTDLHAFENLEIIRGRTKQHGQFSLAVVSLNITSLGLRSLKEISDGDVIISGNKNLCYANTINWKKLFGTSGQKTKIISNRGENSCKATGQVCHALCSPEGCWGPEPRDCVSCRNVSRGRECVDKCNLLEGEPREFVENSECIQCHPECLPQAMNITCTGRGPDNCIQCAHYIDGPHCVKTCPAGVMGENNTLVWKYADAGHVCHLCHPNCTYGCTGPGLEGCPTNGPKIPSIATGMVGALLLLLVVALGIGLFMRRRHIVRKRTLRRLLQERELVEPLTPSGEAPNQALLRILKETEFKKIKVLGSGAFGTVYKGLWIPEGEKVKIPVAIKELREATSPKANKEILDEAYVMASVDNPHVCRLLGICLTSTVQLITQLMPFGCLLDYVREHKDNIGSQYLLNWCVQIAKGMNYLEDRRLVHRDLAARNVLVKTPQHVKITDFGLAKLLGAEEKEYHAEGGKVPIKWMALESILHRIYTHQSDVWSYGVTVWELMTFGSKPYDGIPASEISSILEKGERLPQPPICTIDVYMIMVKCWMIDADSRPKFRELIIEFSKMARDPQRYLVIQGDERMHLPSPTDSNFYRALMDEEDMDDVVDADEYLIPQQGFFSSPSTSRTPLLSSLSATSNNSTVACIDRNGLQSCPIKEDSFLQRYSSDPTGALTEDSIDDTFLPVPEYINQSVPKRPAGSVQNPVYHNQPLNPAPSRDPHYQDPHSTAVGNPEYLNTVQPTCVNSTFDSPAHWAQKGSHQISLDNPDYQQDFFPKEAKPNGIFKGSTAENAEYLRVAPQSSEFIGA

Row | IC50 (EGFR) [nM] | IC50 (HER2) [nM] | IC50 (BT-474) [nM] | IC50 (BT-474; Homo sapiens, BT-474, 72 h) [nM] | Structure (SMILES)
1 | 9.3 | 19.2 | 9 |  | CC#CC(=NOCC(C)N)c1ccc2ncnc(Nc3ccc(OCc4cccc(F)c4)c(Cl)c3)c2c1 (stereo not drawn) [VIII-40]
2 | 12 | 15 | 14 |  | CC#C/C(=N\OC[C@@H](N)CO)c1ccc2ncnc(Nc3ccc(OCc4cccc(F)c4)c(Cl)c3)c2c1 [VIII-41]
3 | 10 | 11 | 24 |  | CC#C/C(=N\OCCN)c1ccc2ncnc(Nc3ccc(OCc4cccc(F)c4)c(Cl)c3)c2c1 [VIII-42]
4 | 26 | 6.3 | 28 |  | CC#C/C(=N\OCCNC(C)COC)c1ccc2ncnc(Nc3ccc(OCc4cccc(F)c4)c(Cl)c3)c2c1 (stereo not drawn) [VIII-44]
5 | 58 | 152 | 13 |  | CC#C/C(=N\OCCNCCS(C)(=O)=O)c1ccc2ncnc(Nc3ccc(OCc4cccc(F)c4)c(Cl)c3)c2c1 [VIII-45]
6 | 82 | 104 |  | 12 | CC#C/C(=N\OCCNC1CC1)c1ccc2ncnc(Nc3ccc(OCc4cccc(F)c4)c(Cl)c3)c2c1 [VIII-46]
7 | 12 | 23 | 4 |  | CC#C/C(=N\OCCNCCNC(C)=O)c1ccc2ncnc(Nc3ccc(OCc4cccc(F)c4)c(Cl)c3)c2c1 [VIII-47]
8 | 44 | 15 | 28 |  | CC#C/C(=N\OCCNC[C@H]1CCCO1)c1ccc2ncnc(Nc3ccc(OCc4cccc(F)c4)c(Cl)c3)c2c1 [VIII-48]
9 | 28 | 31 | 28 |  | CC#C/C(=N\OCCNC[C@@H]1CCCO1)c1ccc2ncnc(Nc3ccc(OCc4cccc(F)c4)c(Cl)c3)c2c1 [VIII-49]
10 | 19 | 15 |  | 27 | CC#C/C(=N\OCCNCCCN1CCCC1=O)c1ccc2ncnc(Nc3ccc(OCc4cccc(F)c4)c(Cl)c3)c2c1 [VIII-50]
11 | 45 | 64 |  | 9 | CC#C/C(=N\OCCNCCNS(C)(=O)=O)c1ccc2ncnc(Nc3ccc(OCc4cccc(F)c4)c(Cl)c3)c2c1 [VIII-51]
12 | 19 | 28 | 9 |  | CC#C/C(=N\OCCNC[C@H]1CCC(=O)N1)c1ccc2ncnc(Nc3ccc(OCc4cccc(F)c4)c(Cl)c3)c2c1 [VIII-52]
13 | 79 | 80 |  | 12 | CC#C/C(=N\OCCNCCOC(N)=O)c1ccc2ncnc(Nc3ccc(OCc4cccc(F)c4)c(Cl)c3)c2c1 [VIII-53]
14 | 19 | 68 |  | 25 | CC#C/C(=N\OCCNC1CCOCC1)c1ccc2ncnc(Nc3ccc(OCc4cccc(F)c4)c(Cl)c3)c2c1 [VIII-55]
15 | 7.9 | 13.8 | 14 |  | CC#C/C(=N\OC[C@@H](COC)NC)c1ccc2ncnc(Nc3ccc(OCc4cccc(F)c4)c(Cl)c3)c2c1 [VIII-56]
16 | 301 | 303 | 15 |  | CC#C/C(=N\OCCNCC(F)(F)F)c1ccc2ncnc(Nc3ccc(OCc4cccc(F)c4)c(Cl)c3)c2c1 [VIII-57]
17 | 207 | 236 |  | 37 | CC#CC(=NOCCNC(=NC#N)NC)c1ccc2ncnc(Nc3ccc(OCc4cccc(F)c4)c(Cl)c3)c2c1 [VIII-58]
18 | 115 | 278 | 11 |  | CC#C/C(=N\OCCNC[C@@H]1COC(=O)N1)c1ccc2ncnc(Nc3ccc(OCc4cccc(F)c4)c(Cl)c3)c2c1 [VIII-59]
19 | 54 | 30 | 14 |  | CC#C/C(=N\OCCNC1CCN(S(C)(=O)=O)CC1)c1ccc2ncnc(Nc3ccc(OCc4cccc(F)c4)c(Cl)c3)c2c1 [VIII-60]
20 | 30 | 24 | 11 |  | CC#C/C(=N\OCCNC1CCN(C(C)=O)CC1)c1ccc2ncnc(Nc3ccc(OCc4cccc(F)c4)c(Cl)c3)c2c1 [VIII-61]
21 | 22 | 22 | 12 |  | CC#CC(=NOCCNCC(C)CO)c1ccc2ncnc(Nc3ccc(OCc4cccc(F)c4)c(Cl)c3)c2c1 (stereo not drawn) [VIII-62]

Row | IC50 (EGFR) [nM] | IC50 (HER2) [nM] | IC50 (BT-474) [nM] | IC50 (BT-474; Homo sapiens, BT-474, 72 h) [nM] | Structure (SMILES)
22 | 9.6 | 9.2 |  | 13 | CC#C/C(=N\OCCNC[C@H](C)CO)c1ccc2ncnc(Nc3ccc(OCc4cccc(F)c4)c(Cl)c3)c2c1 [VIII-63]
23 | 97 | 98 | 30 |  | CC#C/C(=N\OCCN(CC)CCOC)c1ccc2ncnc(Nc3ccc(OCc4cccc(F)c4)c(Cl)c3)c2c1 [VIII-65]
24 | 16 | 14 | 32 |  | CC#C/C(=N\OCCCNC)c1ccc2ncnc(Nc3ccc(OCc4cccc(F)c4)c(Cl)c3)c2c1 [VIII-67]
25 | 19 | 25 | 41 |  | CC#C/C(=N\OC1CNC1)c1ccc2ncnc(Nc3ccc(OCc4cccc(F)c4)c(Cl)c3)c2c1 [VIII-68]
26 | 43 | 28 |  | 16 | CC#C/C(=N\OCCN1CCC[C@@H]1CO)c1ccc2ncnc(Nc3ccc(OCc4cccc(F)c4)c(Cl)c3)c2c1 [VIII-69]
27 | 63 | 31 | 7 |  | CC#CC(=NOCCN1CCC(NC(C)=O)C1)c1ccc2ncnc(Nc3ccc(OCc4cccc(F)c4)c(Cl)c3)c2c1 (stereo not drawn) [VIII-70]
28 | 130 | 199 |  | 17 | CC#C/C(=N\OCCN1CC[C@@H](OC(N)=O)C1)c1ccc2ncnc(Nc3ccc(OCc4cccc(F)c4)c(Cl)c3)c2c1 [VIII-71]
29 | 6.3 | 11 | 21 |  | CC#C/C(=N\OC[C@@H]1CCCN1)c1ccc2ncnc(Nc3ccc(OCc4cccc(F)c4)c(Cl)c3)c2c1 [VIII-72]
30 | 275 | 199 | 12 |  | CC#C/C(=N\OC[C@@H]1CCCN1CC#N)c1ccc2ncnc(Nc3ccc(OCc4cccc(F)c4)c(Cl)c3)c2c1 [VIII-73]
31 | 164 | 150 |  | 28 | CC#C/C(=N\OC[C@@H]1CCCN1CCOC)c1ccc2ncnc(Nc3ccc(OCc4cccc(F)c4)c(Cl)c3)c2c1 [VIII-74]
32 | 50 | 34 | 22 |  | CC#C/C(=N\OC[C@@H]1CCCN1C)c1ccc2ncnc(Nc3ccc(OCc4cccc(F)c4)c(Cl)c3)c2c1 [VIII-75]
33 | 162 | 216 |  | 12 | CC#C/C(=N\OC[C@H]1NC(=O)O[C@@H]1C)c1ccc2ncnc(Nc3ccc(OCc4cccc(F)c4)c(Cl)c3)c2c1 [VIII-76]
34 | 217 | 246 | 11 |  | CC#CC(=NOCC1NC(=O)OC1C)c1ccc2ncnc(Nc3ccc(OCc4cccc(F)c4)c(Cl)c3)c2c1 (stereo not drawn) [VIII-77]
35 | 111 | 410 | 35 |  | CC#CC(=NOCC1CCC(=O)N1)c1ccc2ncnc(Nc3ccc(OCc4cccc(F)c4)c(Cl)c3)c2c1 (stereo not drawn) [VIII-78]
36 | 23 | 29 | 35 |  | CC#CC(=NOC1CNC(CO)C1)c1ccc2ncnc(Nc3ccc(OCc4cccc(F)c4)c(Cl)c3)c2c1 (stereo not drawn) [VIII-80]
37 | 9.8 | 17.7 |  | 8 | CC#C/C(=N\OC[C@@H]1C[C@@H](O)CN1)c1ccc2ncnc(Nc3ccc(OCc4cccc(F)c4)c(Cl)c3)c2c1 [VIII-81]
38 | 7.6 | 7.5 | 16 |  | CC#C/C(=N\OC[C@@H]1C[C@H](O)CN1)c1ccc2ncnc(Nc3ccc(OCc4cccc(F)c4)c(Cl)c3)c2c1 [VIII-82]
39 | 164 | 121 | 13 |  | CC#C/C(=N\OC[C@@H]1CCC(=O)N1)c1ccc2ncnc(Nc3ccc(OCc4cccc(F)c4)c(Cl)c3)c2c1 [VIII-83]
40 | 44 | 47 | 28 |  | CC#C/C(=N\OC[C@@H]1C[C@@H](NC(C)=O)CN1)c1ccc2ncnc(Nc3ccc(OCc4cccc(F)c4)c(Cl)c3)c2c1 [VIII-84]
41 | 32 | 33 | 11 |  | CC#C/C(=N\OC[C@H]1CCCN1)c1ccc2ncnc(Nc3ccc(OCc4cccc(F)c4)c(Cl)c3)c2c1 [VIII-85]
